In PubChem BioAssay AID1963839 (Molecular Pharmacology Branch, DTP, NCI, 2024):

Tested on: 817829-284-R-J1-PDC complex spheroid viability
Assay: Anticancer human tumor 817829-284-R-J1-PDC patient-derived colon adenocarcinoma cell line growth inhibition [POLQ]
Settings: for IC50: curve of first compound; for viability, T/C: stronger effect = lower value
Procedure, shortened: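 Three-cell-type spheroids modelling solid tumor plus stroma served as the readout system; POL inhibitors were tested individually and in combination, concentration ranges set by clinical Cmax where known.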

[1] = second compound 0.0316 µM, first compound 0.0316 µM
[2] = second compound 0.0316 µM, first compound 0.1 µM
[3] = second compound 0.0316 µM, first compound 0.316 µM
[4] = second compound 0.0316 µM, first compound 1 µM
[5] = second compound 0.0316 µM, first compound 3.16 µM
[6] = second compound 0.0316 µM, first compound 10 µM
[7] = second compound 0.1 µM, first compound 0.0316 µM
[8] = second compound 0.1 µM, first compound 0.1 µM
[9] = second compound 0.1 µM, first compound 0.316 µM
[10] = second compound 0.1 µM, first compound 1 µM
[11] = second compound 0.1 µM, first compound 3.16 µM
[12] = second compound 0.1 µM, first compound 10 µM
[13] = second compound 0.316 µM, first compound 0.0316 µM
[14] = second compound 0.316 µM, first compound 0.1 µM
[15] = second compound 0.316 µM, first compound 0.316 µM
[16] = second compound 0.316 µM, first compound 1 µM
[17] = second compound 0.316 µM, first compound 3.16 µM
[18] = second compound 0.316 µM, first compound 10 µM
[19] = second compound 1 µM, first compound 0.0316 µM
[20] = second compound 1 µM, first compound 0.1 µM
[21] = second compound 1 µM, first compound 0.316 µM
[22] = second compound 1 µM, first compound 1 µM
[23] = second compound 1 µM, first compound 3.16 µM
[24] = second compound 1 µM, first compound 10 µM
[25] = second compound 3.16 µM, first compound 0.0316 µM
[26] = second compound 3.16 µM, first compound 0.1 µM
[27] = second compound 3.16 µM, first compound 0.316 µM
[28] = second compound 3.16 µM, first compound 1 µM
[29] = second compound 3.16 µM, first compound 3.16 µM
[30] = second compound 3.16 µM, first compound 10 µM
[31] = second compound 10 µM, first compound 0.0316 µM
[32] = second compound 10 µM, first compound 0.1 µM
[33] = second compound 10 µM, first compound 0.316 µM
[34] = second compound 10 µM, first compound 1 µM
[35] = second compound 10 µM, first compound 3.16 µM
[36] = second compound 10 µM, first compound 10 µM
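Further: spheroids exposed to compounds for 7 days.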
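Wherever viability, T/C is given: 100% = DMSO vehicle-treated spheroids.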

C#Cc1c(F)ccc2cc(O)cc(-c3ncc4c(N5CC6CCC(C5)N6)nc(OCC56CCCN5CC(F)C6)nc4c3F)c12 (stereo not given) + Cc1cccc(N(C)C(=O)C2C(O)CCN2c2nc(C)cc(C(F)(F)F)c2C#N)c1
IC50 (second compound 0.0316 µM): > 10000 nM | IC50 (second compound 0.1 µM): > 10000 nM | IC50 (second compound 0.316 µM): > 10000 nM | IC50 (second compound 1 µM): 7200 nM | IC50 (second compound 3.16 µM): > 10000 nM | IC50 (second compound 10 µM): 8060 nM | viability, T/C [1]: 104% | viability, T/C [2]: 112% | viability, T/C [3]: 85.5% | viability, T/C [4]: 85.9% | viability, T/C [5]: 112% | viability, T/C [6]: 60.9% | viability, T/C [7]: 93% | viability, T/C [8]: 75.6% | viability, T/C [9]: 88% | viability, T/C [10]: 95.1% | viability, T/C [11]: 136% | viability, T/C [12]: 76% | viability, T/C [13]: 62.5% | viability, T/C [14]: 75.8% | viability, T/C [15]: 95% | viability, T/C [16]: 97.9% | viability, T/C [17]: 79.7% | viability, T/C [18]: 63.5% | viability, T/C [19]: 94.7% | viability, T/C [20]: 86.9% | viability, T/C [21]: 93% | viability, T/C [22]: 118% | viability, T/C [23]: 97% | viability, T/C [24]: 31.2% | viability, T/C [25]: 108% | viability, T/C [26]: 82.3% | viability, T/C [27]: 86.1% | viability, T/C [28]: 87% | viability, T/C [29]: 97.3% | viability, T/C [30]: 89.4% | viability, T/C [31]: 99.7% | viability, T/C [32]: 108% | viability, T/C [33]: 90.2% | viability, T/C [34]: 96.4% | viability, T/C [35]: 89.3% | viability, T/C [36]: 40.7%

CC1COCCN1c1cc(C2(O)CC3CCC(C2)O3)c2cnn(-c3ccn[nH]3)c2n1 (stereo not given) + Cc1cccc(N(C)C(=O)C2C(O)CCN2c2nc(C)cc(C(F)(F)F)c2C#N)c1
IC50 (second compound 0.0316 µM): < 31.6 nM | IC50 (second compound 0.1 µM): < 31.6 nM | IC50 (second compound 0.316 µM): < 31.6 nM | IC50 (second compound 1 µM): < 31.6 nM | IC50 (second compound 3.16 µM): < 31.6 nM | IC50 (second compound 10 µM): < 31.6 nM | viability, T/C [1]: 28.6% | viability, T/C [2]: 10.7% | viability, T/C [3]: 4.5% | viability, T/C [4]: 3.59% | viability, T/C [5]: 2.99% | viability, T/C [6]: 2.26% | viability, T/C [7]: 29.8% | viability, T/C [8]: 11.4% | viability, T/C [9]: 4.57% | viability, T/C [10]: 3.83% | viability, T/C [11]: 3.59% | viability, T/C [12]: 2.95% | viability, T/C [13]: 28.6% | viability, T/C [14]: 9.76% | viability, T/C [15]: 3.78% | viability, T/C [16]: 3.72% | viability, T/C [17]: 3.01% | viability, T/C [18]: 1.9% | viability, T/C [19]: 24.4% | viability, T/C [20]: 9.97% | viability, T/C [21]: 4.66% | viability, T/C [22]: 4.17% | viability, T/C [23]: 2.77% | viability, T/C [24]: 2.21% | viability, T/C [25]: 26.8% | viability, T/C [26]: 9.02% | viability, T/C [27]: 5.06% | viability, T/C [28]: 3.24% | viability, T/C [29]: 2.62% | viability, T/C [30]: 2.27% | viability, T/C [31]: 23% | viability, T/C [32]: 10.3% | viability, T/C [33]: 6.05% | viability, T/C [34]: 3.31% | viability, T/C [35]: 2.74% | viability, T/C [36]: 2.44%

CCc1cc2c(N3CCc4c(cc(Cn5ccnc5)cc4-c4cn(C)nc4C(F)(F)F)C3=O)cc(C)nc2c(OC)n1 + Cc1cccc(N(C)C(=O)C2C(O)CCN2c2nc(C)cc(C(F)(F)F)c2C#N)c1
IC50 (second compound 0.0316 µM): 1780 nM | IC50 (second compound 0.1 µM): 2490 nM | IC50 (second compound 0.316 µM): 1180 nM | IC50 (second compound 1 µM): 1630 nM | IC50 (second compound 3.16 µM): 2680 nM | IC50 (second compound 10 µM): 1360 nM | viability, T/C [1]: 85.3% | viability, T/C [2]: 65.6% | viability, T/C [3]: 68.5% | viability, T/C [4]: 59.6% | viability, T/C [5]: 41.8% | viability, T/C [6]: 32.9% | viability, T/C [7]: 88.9% | viability, T/C [8]: 77.5% | viability, T/C [9]: 62.2% | viability, T/C [10]: 73.8% | viability, T/C [11]: 43.6% | viability, T/C [12]: 28.8% | viability, T/C [13]: 72% | viability, T/C [14]: 83.9% | viability, T/C [15]: 94% | viability, T/C [16]: 53.1% | viability, T/C [17]: 38.8% | viability, T/C [18]: 22.9% | viability, T/C [19]: 84.1% | viability, T/C [20]: 64.3% | viability, T/C [21]: 81.8% | viability, T/C [22]: 52.9% | viability, T/C [23]: 43.3% | viability, T/C [24]: 30.2% | viability, T/C [25]: 79.4% | viability, T/C [26]: 87.9% | viability, T/C [27]: 66.6% | viability, T/C [28]: 59.3% | viability, T/C [29]: 51% | viability, T/C [30]: 33.8% | viability, T/C [31]: 71.4% | viability, T/C [32]: 78.2% | viability, T/C [33]: 66.2% | viability, T/C [34]: 56.9% | viability, T/C [35]: 34.3% | viability, T/C [36]: 26.7%

O=C(Nc1ccc(O)c(NS(=O)(=O)c2ccc(F)cc2)c1)c1ccc(-c2ccccc2)cc1 + Cc1cccc(N(C)C(=O)C2C(O)CCN2c2nc(C)cc(C(F)(F)F)c2C#N)c1
IC50 (second compound 0.0316 µM): 8080 nM | IC50 (second compound 0.1 µM): 7500 nM | IC50 (second compound 0.316 µM): 8910 nM | IC50 (second compound 1 µM): 6360 nM | IC50 (second compound 3.16 µM): 5440 nM | IC50 (second compound 10 µM): 5200 nM | viability, T/C [1]: 110% | viability, T/C [2]: 106% | viability, T/C [3]: 113% | viability, T/C [4]: 78.7% | viability, T/C [5]: 91.2% | viability, T/C [6]: 41% | viability, T/C [7]: 98.8% | viability, T/C [8]: 79.1% | viability, T/C [9]: 106% | viability, T/C [10]: 90.5% | viability, T/C [11]: 72.6% | viability, T/C [12]: 42.5% | viability, T/C [13]: 96.3% | viability, T/C [14]: 93.2% | viability, T/C [15]: 95.9% | viability, T/C [16]: 87.9% | viability, T/C [17]: 87.6% | viability, T/C [18]: 45.5% | viability, T/C [19]: 80.6% | viability, T/C [20]: 90.5% | viability, T/C [21]: 92.4% | viability, T/C [22]: 94.7% | viability, T/C [23]: 64.8% | viability, T/C [24]: 40.4% | viability, T/C [25]: 95.6% | viability, T/C [26]: 101% | viability, T/C [27]: 102% | viability, T/C [28]: 98.9% | viability, T/C [29]: 60.8% | viability, T/C [30]: 37.9% | viability, T/C [31]: 98.4% | viability, T/C [32]: 84.5% | viability, T/C [33]: 92.5% | viability, T/C [34]: 83.7% | viability, T/C [35]: 65% | viability, T/C [36]: 30%

COc1cccc2c1C(=O)c1c(O)c3c(c(O)c1C2=O)CC(O)(C(=O)CO)CC3OC1CC(N)C(O)C(C)O1 (stereo not given) + Nc1ccc(C#CCN(C(=O)Cc2ncc(C(F)(F)F)cc2C(F)(F)F)c2ccc(F)cc2)nn1
IC50 (second compound 0.0316 µM): < 31.6 nM | IC50 (second compound 0.1 µM): < 31.6 nM | IC50 (second compound 0.316 µM): < 31.6 nM | IC50 (second compound 1 µM): < 31.6 nM | IC50 (second compound 3.16 µM): < 31.6 nM | IC50 (second compound 10 µM): < 31.6 nM | viability, T/C [1]: 21.8% | viability, T/C [2]: 21.2% | viability, T/C [3]: 5.37% | viability, T/C [4]: 0.34% | viability, T/C [5]: 0.13% | viability, T/C [6]: 0.41% | viability, T/C [7]: 18.1% | viability, T/C [8]: 21.5% | viability, T/C [9]: 6.2% | viability, T/C [10]: 0.54% | viability, T/C [11]: 0.2% | viability, T/C [12]: 0.48% | viability, T/C [13]: 21.1% | viability, T/C [14]: 17.4% | viability, T/C [15]: 6.38% | viability, T/C [16]: 0.38% | viability, T/C [17]: 0.13% | viability, T/C [18]: 0.65% | viability, T/C [19]: 21.6% | viability, T/C [20]: 22.7% | viability, T/C [21]: 5.1% | viability, T/C [22]: 0.6% | viability, T/C [23]: 0.16% | viability, T/C [24]: 0.62% | viability, T/C [25]: 17.3% | viability, T/C [26]: 15.6% | viability, T/C [27]: 5.54% | viability, T/C [28]: 0.25% | viability, T/C [29]: 0.19% | viability, T/C [30]: 0.51% | viability, T/C [31]: 18.4% | viability, T/C [32]: 21.1% | viability, T/C [33]: 4.32% | viability, T/C [34]: 0.29% | viability, T/C [35]: 0.26% | viability, T/C [36]: 0.52%
